{
  "source": "paper PMC12373846",
  "about": "“Hemoglobin as a pseudoperoxidase and drug target for oxidative stress-related diseases” (Signal Transduction and Targeted Therapy, 2025)",
  "assay_in_all_cases": "KINOMEscan",
  "assay_type_in_all_cases": "binding",
  "conditions_in_all_cases": "10000 nM; read-out: Percent Control",
  "key": {"MKNK2": {"target": "T1, MKNK2 (Homo sapiens, UniProt Q9HBH9)", "T1 construct": "purchased DiscoverX KINOMEscan scanEDGE; Eurofins Cerep SafetyScreen87", "method": "(§1) The possibility of KDS12025 on kinase off-target, the KINOMEscan panel of scanEDGE assay was conducted in DiscoverX (CA, USA) using a site-directed competition binding with the test compounds. The assay results are given in Supplementary Table 4 and experimental information is available on the DiscoverX web page (www.discoverx.com). Moreover, the Delta SafetyScreen87 panel assay was conducted in Eurofins Discovery (Cerep, France). The assay results are given in Supplementary Table 5 and experimental information is available on the DiscoverX web page (https://www.eurofinsdiscoveryservices.com)."}, "PDPK1": {"target": "T2, PDPK1 (Homo sapiens, UniProt O15530)", "T2 construct": "purchased DiscoverX KINOMEscan scanEDGE; Eurofins Cerep SafetyScreen87", "method": "as §1"}, "PAK1": {"target": "T3, PAK1 (Homo sapiens, UniProt Q13153)", "T3 construct": "purchased DiscoverX KINOMEscan scanEDGE; Eurofins Cerep SafetyScreen87", "method": "as §1"}, "PCTK1": {"target": "T4, PCTK1 (Homo sapiens, UniProt Q00536)", "T4 construct": "purchased DiscoverX KINOMEscan scanEDGE; Eurofins Cerep SafetyScreen87", "method": "as §1"}, "LKB1": {"target": "T5, LKB1 (Homo sapiens, UniProt Q15831)", "T5 construct": "purchased DiscoverX KINOMEscan scanEDGE; Eurofins Cerep SafetyScreen87", "method": "as §1"}, "TSSK1B": {"target": "T6, TSSK1B (Homo sapiens, UniProt Q9BXA7)", "T6 construct": "purchased DiscoverX KINOMEscan scanEDGE; Eurofins Cerep SafetyScreen87", "method": "as §1"}, "ADCK3": {"target": "T7, ADCK3 (Homo sapiens, UniProt Q8NI60)", "T7 construct": "purchased DiscoverX KINOMEscan scanEDGE; Eurofins Cerep SafetyScreen87", "method": "as §1"}, "KIT": {"target": "T8, KIT (Homo sapiens, UniProt P10721)", "T8 construct": "purchased DiscoverX KINOMEscan scanEDGE; Eurofins Cerep SafetyScreen87", "T8 sequence (P10721 26-976)": "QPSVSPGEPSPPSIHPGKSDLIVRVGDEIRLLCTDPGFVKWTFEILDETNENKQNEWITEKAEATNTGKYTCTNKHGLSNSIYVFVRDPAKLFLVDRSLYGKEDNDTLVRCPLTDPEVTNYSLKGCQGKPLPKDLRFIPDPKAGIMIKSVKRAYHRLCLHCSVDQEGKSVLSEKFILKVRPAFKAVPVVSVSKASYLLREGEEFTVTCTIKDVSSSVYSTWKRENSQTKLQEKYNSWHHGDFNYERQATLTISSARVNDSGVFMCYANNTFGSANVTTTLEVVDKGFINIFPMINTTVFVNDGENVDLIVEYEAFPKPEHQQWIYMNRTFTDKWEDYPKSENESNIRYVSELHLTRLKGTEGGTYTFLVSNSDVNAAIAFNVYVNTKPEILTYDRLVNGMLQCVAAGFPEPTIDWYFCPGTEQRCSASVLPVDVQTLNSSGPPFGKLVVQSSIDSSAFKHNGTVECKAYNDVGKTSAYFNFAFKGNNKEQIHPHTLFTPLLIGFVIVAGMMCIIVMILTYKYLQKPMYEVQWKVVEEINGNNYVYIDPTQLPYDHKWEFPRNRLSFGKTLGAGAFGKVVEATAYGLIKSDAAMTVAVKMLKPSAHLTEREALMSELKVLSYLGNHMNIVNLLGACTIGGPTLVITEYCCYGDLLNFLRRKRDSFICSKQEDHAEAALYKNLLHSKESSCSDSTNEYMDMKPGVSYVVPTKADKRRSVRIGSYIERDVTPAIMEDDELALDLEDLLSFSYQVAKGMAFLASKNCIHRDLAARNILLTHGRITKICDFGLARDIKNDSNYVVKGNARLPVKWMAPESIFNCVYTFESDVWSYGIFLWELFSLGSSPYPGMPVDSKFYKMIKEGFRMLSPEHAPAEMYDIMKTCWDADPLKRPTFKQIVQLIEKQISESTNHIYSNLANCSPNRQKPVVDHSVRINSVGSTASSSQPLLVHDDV", "method": "as §1"}, "CDK11": {"target": "T9, CDK11 (Homo sapiens, UniProt Q9BWU1)", "T9 construct": "purchased DiscoverX KINOMEscan scanEDGE; Eurofins Cerep SafetyScreen87", "method": "as §1"}, "KIT(D816V)": {"target": "T10, KIT(D816V) (Homo sapiens, UniProt P10721, D816V)", "T10 construct": "purchased DiscoverX KINOMEscan scanEDGE; Eurofins Cerep SafetyScreen87", "T10 sequence (P10721 26-976 D816V)": "as the sequence (P10721 26-976) above, with D791V counted along it", "method": "as §1"}, "MAPKAPK2": {"target": "T11, MAPKAPK2 (Homo sapiens, UniProt P49137)", "T11 construct": "purchased DiscoverX KINOMEscan scanEDGE; Eurofins Cerep SafetyScreen87", "method": "as §1"}, "AKT1": {"target": "T12, AKT1 (Homo sapiens, UniProt P31749)", "T12 construct": "purchased DiscoverX KINOMEscan scanEDGE; Eurofins Cerep SafetyScreen87", "method": "as §1"}, "PKAC-alpha": {"target": "T13, PKAC-alpha (Homo sapiens, UniProt P17612)", "T13 construct": "purchased DiscoverX KINOMEscan scanEDGE; Eurofins Cerep SafetyScreen87", "method": "as §1"}, "PIM1": {"target": "T14, PIM1 (Homo sapiens, UniProt P11309)", "T14 construct": "purchased DiscoverX KINOMEscan scanEDGE; Eurofins Cerep SafetyScreen87", "method": "as §1"}, "[1]": {"target": "T15, RSK2(Kin.Dom.1-N-terminal) (Homo sapiens, UniProt P51812)", "T15 construct": "RSK2(Kin.Dom.1-N-terminal); purchased DiscoverX KINOMEscan scanEDGE; Eurofins Cerep SafetyScreen87", "method": "as §1"}, "PIK3CA": {"target": "T16, PIK3CA (Homo sapiens, UniProt P42336)", "T16 construct": "purchased DiscoverX KINOMEscan scanEDGE; Eurofins Cerep SafetyScreen87", "method": "as §1"}, "ERK1": {"target": "T17, ERK1 (Homo sapiens, UniProt P27361)", "T17 construct": "purchased DiscoverX KINOMEscan scanEDGE; Eurofins Cerep SafetyScreen87", "method": "as §1"}, "DCAMKL1": {"target": "T18, DCAMKL1 (Homo sapiens, UniProt O15075)", "T18 construct": "purchased DiscoverX KINOMEscan scanEDGE; Eurofins Cerep SafetyScreen87", "method": "as §1"}, "MKNK1": {"target": "T19, MKNK1 (Homo sapiens, UniProt Q9BUB5)", "T19 construct": "purchased DiscoverX KINOMEscan scanEDGE; Eurofins Cerep SafetyScreen87", "method": "as §1"}, "[2]": {"target": "T20, TYK2(JH1domain-catalytic) (Homo sapiens, UniProt P29597)", "T20 construct": "TYK2(JH1domain-catalytic); purchased DiscoverX KINOMEscan scanEDGE; Eurofins Cerep SafetyScreen87", "method": "as §1"}, "IKK-alpha": {"target": "T21, IKK-alpha (Homo sapiens, UniProt O15111)", "T21 construct": "purchased DiscoverX KINOMEscan scanEDGE; Eurofins Cerep SafetyScreen87", "method": "as §1"}, "RIOK2": {"target": "T22, RIOK2 (Homo sapiens, UniProt Q9BVS4)", "T22 construct": "purchased DiscoverX KINOMEscan scanEDGE; Eurofins Cerep SafetyScreen87", "method": "as §1"}, "EGFR(L858R)": {"target": "T23, EGFR(L858R) (Homo sapiens, UniProt P00533, L858R)", "T23 construct": "purchased DiscoverX KINOMEscan scanEDGE; Eurofins Cerep SafetyScreen87", "T23 sequence (P00533 25-1210 L858R)": "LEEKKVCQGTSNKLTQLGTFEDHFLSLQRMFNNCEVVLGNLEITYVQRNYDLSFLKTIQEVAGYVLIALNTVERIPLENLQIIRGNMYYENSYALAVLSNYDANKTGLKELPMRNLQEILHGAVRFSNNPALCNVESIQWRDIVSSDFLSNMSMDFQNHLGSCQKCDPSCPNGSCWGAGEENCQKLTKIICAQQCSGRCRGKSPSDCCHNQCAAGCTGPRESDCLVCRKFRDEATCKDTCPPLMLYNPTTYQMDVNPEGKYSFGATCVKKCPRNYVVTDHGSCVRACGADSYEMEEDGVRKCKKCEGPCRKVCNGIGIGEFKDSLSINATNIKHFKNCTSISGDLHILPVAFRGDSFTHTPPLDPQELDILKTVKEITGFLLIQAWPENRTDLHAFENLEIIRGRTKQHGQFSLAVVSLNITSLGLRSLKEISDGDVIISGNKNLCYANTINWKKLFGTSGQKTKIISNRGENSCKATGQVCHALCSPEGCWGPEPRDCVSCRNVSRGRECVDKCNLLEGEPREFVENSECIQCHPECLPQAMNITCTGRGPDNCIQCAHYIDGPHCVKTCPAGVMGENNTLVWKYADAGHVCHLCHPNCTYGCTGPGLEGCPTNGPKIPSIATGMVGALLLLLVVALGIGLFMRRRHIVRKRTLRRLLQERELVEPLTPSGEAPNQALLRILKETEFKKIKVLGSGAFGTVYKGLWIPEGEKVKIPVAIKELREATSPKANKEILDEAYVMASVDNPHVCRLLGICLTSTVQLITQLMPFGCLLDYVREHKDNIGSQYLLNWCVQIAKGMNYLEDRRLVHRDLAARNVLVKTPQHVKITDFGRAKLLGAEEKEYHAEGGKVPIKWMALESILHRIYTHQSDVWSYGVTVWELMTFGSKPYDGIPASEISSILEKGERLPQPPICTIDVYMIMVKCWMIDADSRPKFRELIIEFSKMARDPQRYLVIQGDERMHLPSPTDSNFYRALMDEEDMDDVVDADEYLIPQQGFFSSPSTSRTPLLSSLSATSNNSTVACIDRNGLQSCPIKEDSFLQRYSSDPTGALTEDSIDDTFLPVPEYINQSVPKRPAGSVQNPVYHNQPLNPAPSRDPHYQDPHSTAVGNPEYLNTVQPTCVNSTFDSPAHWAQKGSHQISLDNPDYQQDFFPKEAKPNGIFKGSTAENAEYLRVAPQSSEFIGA", "method": "as §1"}, "PDGFRA": {"target": "T24, PDGFRA (Homo sapiens, UniProt P16234)", "T24 construct": "purchased DiscoverX KINOMEscan scanEDGE; Eurofins Cerep SafetyScreen87", "method": "as §1"}, "PLK3": {"target": "T25, PLK3 (Homo sapiens, UniProt Q9H4B4)", "T25 construct": "purchased DiscoverX KINOMEscan scanEDGE; Eurofins Cerep SafetyScreen87", "method": "as §1"}, "PIM2": {"target": "T26, PIM2 (Homo sapiens, UniProt Q9P1W9)", "T26 construct": "purchased DiscoverX KINOMEscan scanEDGE; Eurofins Cerep SafetyScreen87", "method": "as §1"}, "CSNK1G2": {"target": "T27, CSNK1G2 (Homo sapiens, UniProt P78368)", "T27 construct": "purchased DiscoverX KINOMEscan scanEDGE; Eurofins Cerep SafetyScreen87", "method": "as §1"}, "FGFR2": {"target": "T28, FGFR2 (Homo sapiens, UniProt P21802)", "T28 construct": "purchased DiscoverX KINOMEscan scanEDGE; Eurofins Cerep SafetyScreen87", "T28 sequence (P21802 22-821)": "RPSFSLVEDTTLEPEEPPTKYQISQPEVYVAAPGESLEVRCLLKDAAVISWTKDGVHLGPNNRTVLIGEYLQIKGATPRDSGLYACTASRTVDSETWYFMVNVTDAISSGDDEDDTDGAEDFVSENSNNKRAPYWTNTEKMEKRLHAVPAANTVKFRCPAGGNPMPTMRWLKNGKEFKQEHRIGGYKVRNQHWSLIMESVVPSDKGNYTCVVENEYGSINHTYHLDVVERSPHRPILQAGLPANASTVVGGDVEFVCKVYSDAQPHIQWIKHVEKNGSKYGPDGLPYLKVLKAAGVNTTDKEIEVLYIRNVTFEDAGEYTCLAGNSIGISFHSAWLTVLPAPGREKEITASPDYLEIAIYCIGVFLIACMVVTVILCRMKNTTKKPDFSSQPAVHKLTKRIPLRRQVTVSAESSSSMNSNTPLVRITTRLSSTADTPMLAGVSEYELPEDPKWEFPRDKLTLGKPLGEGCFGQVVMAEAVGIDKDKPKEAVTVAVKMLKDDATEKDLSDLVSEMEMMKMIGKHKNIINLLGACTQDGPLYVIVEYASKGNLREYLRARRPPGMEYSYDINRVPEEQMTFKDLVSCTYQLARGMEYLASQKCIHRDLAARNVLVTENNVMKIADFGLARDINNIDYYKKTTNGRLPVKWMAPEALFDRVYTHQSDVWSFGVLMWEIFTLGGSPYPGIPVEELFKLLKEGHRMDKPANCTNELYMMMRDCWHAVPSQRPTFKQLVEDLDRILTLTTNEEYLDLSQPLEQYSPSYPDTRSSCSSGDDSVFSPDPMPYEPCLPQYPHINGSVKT", "method": "as §1"}, "PAK4": {"target": "T29, PAK4 (Homo sapiens, UniProt O96013)", "T29 construct": "purchased DiscoverX KINOMEscan scanEDGE; Eurofins Cerep SafetyScreen87", "method": "as §1"}, "FLT3": {"target": "T30, FLT3 (Homo sapiens, UniProt P36888)", "T30 construct": "purchased DiscoverX KINOMEscan scanEDGE; Eurofins Cerep SafetyScreen87", "method": "as §1"}, "MEK1": {"target": "T31, MEK1 (Homo sapiens, UniProt Q02750)", "T31 construct": "purchased DiscoverX KINOMEscan scanEDGE; Eurofins Cerep SafetyScreen87", "method": "as §1"}, "PLK4": {"target": "T32, PLK4 (Homo sapiens, UniProt O00444)", "T32 construct": "purchased DiscoverX KINOMEscan scanEDGE; Eurofins Cerep SafetyScreen87", "method": "as §1"}, "ALK": {"target": "T33, ALK (Homo sapiens, UniProt Q9UM73)", "T33 construct": "purchased DiscoverX KINOMEscan scanEDGE; Eurofins Cerep SafetyScreen87", "method": "as §1"}, "[3]": {"target": "T34, ABL1(T315I)-phosphorylated (Homo sapiens, UniProt P00519, T315I)", "T34 construct": "purchased DiscoverX KINOMEscan scanEDGE; Eurofins Cerep SafetyScreen87", "method": "as §1"}, "PDGFRB": {"target": "T35, PDGFRB (Homo sapiens, UniProt P09619)", "T35 construct": "purchased DiscoverX KINOMEscan scanEDGE; Eurofins Cerep SafetyScreen87", "method": "as §1"}, "MAP3K4": {"target": "T36, MAP3K4 (Homo sapiens, UniProt Q9Y6R4)", "T36 construct": "purchased DiscoverX KINOMEscan scanEDGE; Eurofins Cerep SafetyScreen87", "T36 sequence (Q9Y6R4 whole entry)": "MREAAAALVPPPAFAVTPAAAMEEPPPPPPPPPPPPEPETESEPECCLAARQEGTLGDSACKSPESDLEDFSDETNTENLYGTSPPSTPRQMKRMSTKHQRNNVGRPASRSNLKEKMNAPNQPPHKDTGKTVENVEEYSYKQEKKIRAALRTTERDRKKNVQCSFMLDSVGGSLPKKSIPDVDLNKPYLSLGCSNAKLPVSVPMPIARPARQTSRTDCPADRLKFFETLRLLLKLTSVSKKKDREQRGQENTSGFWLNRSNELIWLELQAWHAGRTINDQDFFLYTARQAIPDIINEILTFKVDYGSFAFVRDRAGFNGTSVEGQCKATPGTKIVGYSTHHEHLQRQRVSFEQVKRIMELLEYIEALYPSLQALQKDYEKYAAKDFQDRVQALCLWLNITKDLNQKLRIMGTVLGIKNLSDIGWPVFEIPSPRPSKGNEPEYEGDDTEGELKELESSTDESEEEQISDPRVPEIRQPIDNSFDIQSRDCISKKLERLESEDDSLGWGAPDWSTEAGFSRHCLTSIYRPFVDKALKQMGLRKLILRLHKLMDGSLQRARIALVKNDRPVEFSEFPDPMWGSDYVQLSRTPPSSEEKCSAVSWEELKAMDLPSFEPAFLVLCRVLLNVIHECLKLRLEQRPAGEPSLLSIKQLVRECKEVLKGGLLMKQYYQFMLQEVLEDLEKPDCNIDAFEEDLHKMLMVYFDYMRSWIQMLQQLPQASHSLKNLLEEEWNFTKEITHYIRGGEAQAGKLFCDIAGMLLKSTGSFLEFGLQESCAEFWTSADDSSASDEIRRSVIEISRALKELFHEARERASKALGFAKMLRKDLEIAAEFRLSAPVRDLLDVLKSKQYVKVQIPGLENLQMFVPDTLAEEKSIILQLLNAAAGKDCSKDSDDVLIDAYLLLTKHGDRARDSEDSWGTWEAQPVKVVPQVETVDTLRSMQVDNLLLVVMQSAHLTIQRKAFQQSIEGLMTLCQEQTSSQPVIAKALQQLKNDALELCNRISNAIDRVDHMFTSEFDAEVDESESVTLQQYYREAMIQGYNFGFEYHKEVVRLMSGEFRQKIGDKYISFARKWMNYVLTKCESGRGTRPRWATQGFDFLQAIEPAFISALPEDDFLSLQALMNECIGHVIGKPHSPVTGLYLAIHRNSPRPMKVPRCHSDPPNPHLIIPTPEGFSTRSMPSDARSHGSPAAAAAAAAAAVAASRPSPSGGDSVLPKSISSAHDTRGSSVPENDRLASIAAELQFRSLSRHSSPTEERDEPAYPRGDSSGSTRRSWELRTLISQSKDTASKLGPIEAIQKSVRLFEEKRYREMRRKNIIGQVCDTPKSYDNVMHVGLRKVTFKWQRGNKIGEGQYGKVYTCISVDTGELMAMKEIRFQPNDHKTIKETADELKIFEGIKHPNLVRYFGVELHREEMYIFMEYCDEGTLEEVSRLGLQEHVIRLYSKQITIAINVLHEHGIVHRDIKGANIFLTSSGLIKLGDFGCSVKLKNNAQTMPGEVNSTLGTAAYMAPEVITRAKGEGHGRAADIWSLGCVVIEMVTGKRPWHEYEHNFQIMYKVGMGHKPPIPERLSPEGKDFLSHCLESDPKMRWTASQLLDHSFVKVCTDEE", "method": "as §1"}, "ERBB4": {"target": "T37, ERBB4 (Homo sapiens, UniProt Q15303)", "T37 construct": "purchased DiscoverX KINOMEscan scanEDGE; Eurofins Cerep SafetyScreen87", "method": "as §1"}, "p38-beta": {"target": "T38, p38-beta (Homo sapiens, UniProt Q15759)", "T38 construct": "purchased DiscoverX KINOMEscan scanEDGE; Eurofins Cerep SafetyScreen87", "T38 sequence (Q15759 whole entry)": "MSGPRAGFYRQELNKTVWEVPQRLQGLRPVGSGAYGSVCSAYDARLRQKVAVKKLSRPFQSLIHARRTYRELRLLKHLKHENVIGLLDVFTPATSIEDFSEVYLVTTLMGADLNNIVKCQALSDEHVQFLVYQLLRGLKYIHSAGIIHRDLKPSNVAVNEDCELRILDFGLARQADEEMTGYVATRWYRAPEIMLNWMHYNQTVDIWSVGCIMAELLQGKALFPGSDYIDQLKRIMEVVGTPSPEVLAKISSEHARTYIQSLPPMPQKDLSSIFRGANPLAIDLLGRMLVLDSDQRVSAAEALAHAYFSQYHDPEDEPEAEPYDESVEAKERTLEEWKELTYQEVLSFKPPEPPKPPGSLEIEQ", "method": "as §1"}, "ROCK2": {"target": "T39, ROCK2 (Homo sapiens, UniProt O75116)", "T39 construct": "purchased DiscoverX KINOMEscan scanEDGE; Eurofins Cerep SafetyScreen87", "method": "as §1"}},
  "data": [
    {"compound": "CNc1ccc(NCCc2ccccc2OC)cc1.Cl", "note": "[KDS12025, N^1-(2-methoxyphenethyl)-N^4-methylbenzene-1,4-diamine hydrochloride salt]", "values": [
      {"measurement": "remaining binding at 10 µM", "setting": "MKNK2", "result": 95, "unit": "%"},
      {"measurement": "remaining binding at 10 µM", "setting": "PDPK1", "result": 56, "unit": "%"},
      {"measurement": "remaining binding at 10 µM", "setting": "PAK1", "result": 75, "unit": "%"},
      {"measurement": "remaining binding at 10 µM", "setting": "PCTK1", "result": 94, "unit": "%"},
      {"measurement": "remaining binding at 10 µM", "setting": "LKB1", "result": 80, "unit": "%"},
      {"measurement": "remaining binding at 10 µM", "setting": "TSSK1B", "result": 45, "unit": "%"},
      {"measurement": "remaining binding at 10 µM", "setting": "ADCK3", "result": 93, "unit": "%"},
      {"measurement": "remaining binding at 10 µM", "setting": "KIT", "result": 90, "unit": "%"},
      {"measurement": "remaining binding at 10 µM", "setting": "CDK11", "result": 73, "unit": "%"},
      {"measurement": "remaining binding at 10 µM", "setting": "KIT(D816V)", "result": 91, "unit": "%"},
      {"measurement": "remaining binding at 10 µM", "setting": "MAPKAPK2", "result": 75, "unit": "%"},
      {"measurement": "remaining binding at 10 µM", "setting": "AKT1", "result": 75, "unit": "%"},
      {"measurement": "remaining binding at 10 µM", "setting": "PKAC-alpha", "result": 74, "unit": "%"},
      {"measurement": "remaining binding at 10 µM", "setting": "PIM1", "result": 95, "unit": "%"},
      {"measurement": "remaining binding at 10 µM", "setting": "[1]", "result": 84, "unit": "%"},
      {"measurement": "remaining binding at 10 µM", "setting": "PIK3CA", "result": 63, "unit": "%"},
      {"measurement": "remaining binding at 10 µM", "setting": "ERK1", "result": 83, "unit": "%"},
      {"measurement": "remaining binding at 10 µM", "setting": "DCAMKL1", "result": 82, "unit": "%"},
      {"measurement": "remaining binding at 10 µM", "setting": "MKNK1", "result": 100, "unit": "%"},
      {"measurement": "remaining binding at 10 µM", "setting": "[2]", "result": 93, "unit": "%"},
      {"measurement": "remaining binding at 10 µM", "setting": "IKK-alpha", "result": 100, "unit": "%"},
      {"measurement": "remaining binding at 10 µM", "setting": "RIOK2", "result": 98, "unit": "%"},
      {"measurement": "remaining binding at 10 µM", "setting": "EGFR(L858R)", "result": 45, "unit": "%"},
      {"measurement": "remaining binding at 10 µM", "setting": "PDGFRA", "result": 85, "unit": "%"},
      {"measurement": "remaining binding at 10 µM", "setting": "PLK3", "result": 75, "unit": "%"},
      {"measurement": "remaining binding at 10 µM", "setting": "PIM2", "result": 64, "unit": "%"},
      {"measurement": "remaining binding at 10 µM", "setting": "CSNK1G2", "result": 45, "unit": "%"},
      {"measurement": "remaining binding at 10 µM", "setting": "FGFR2", "result": 87, "unit": "%"},
      {"measurement": "remaining binding at 10 µM", "setting": "PAK4", "result": 100, "unit": "%"},
      {"measurement": "remaining binding at 10 µM", "setting": "FLT3", "result": 100, "unit": "%"},
      {"measurement": "remaining binding at 10 µM", "setting": "MEK1", "result": 82, "unit": "%"},
      {"measurement": "remaining binding at 10 µM", "setting": "PLK4", "result": 77, "unit": "%"},
      {"measurement": "remaining binding at 10 µM", "setting": "ALK", "result": 98, "unit": "%"},
      {"measurement": "remaining binding at 10 µM", "setting": "[3]", "result": 84, "unit": "%"},
      {"measurement": "remaining binding at 10 µM", "setting": "PDGFRB", "result": 92, "unit": "%"},
      {"measurement": "remaining binding at 10 µM", "setting": "MAP3K4", "result": 100, "unit": "%"},
      {"measurement": "remaining binding at 10 µM", "setting": "ERBB4", "result": 92, "unit": "%"},
      {"measurement": "remaining binding at 10 µM", "setting": "p38-beta", "result": 100, "unit": "%"},
      {"measurement": "remaining binding at 10 µM", "setting": "ROCK2", "result": 85, "unit": "%"}
    ]}
  ]
}
